Source: patent US8178724B2, “Compounds for inhibition of 5-hydroxytryptamine and norepinephrine reuptake or for treatment of depression disorders, their preparation processes and uses thereof” (Shandong Luye Pharmaceutical Co., Ltd., priority 2005, dated 2012)

Experiments:
[1] = Beagle test of sustained release capsules (oral) versus intravenous administration; type: in vivo; details: beagles, orally administrated sustained release capsule
Procedure: The blood samples were collected separately at 0.25, 0.5, 1, 2, 4, 6, 8, 12, 16 and 24 hours after drug administration.

human liver cells S9 = experiment: Metabolism in human liver cells S9 to form the active component compound III; type: in vitro ADME; details: conversion to compound III, human liver S9, 1 mM NADPH, 37° C.
Source text: Then the mixture was quenched with concentrated perchloric acid. After the precipitated proteins was removed by centrifuge, the supernatant was adjusted with concentrated potassium phosphate until pH was 3, and centrifuged again. The supernatant was directly injected into HPLC and analyzed.

SMILES | conversion into compound III in vivo [1] | Metabolic rate (%) of compounds in liver cells within 2 hours (human liver cells S9)
COc1ccc(C(=O)Oc2ccc(C(CN(C)C)C3(O)CCCCC3)cc2)cc1.O=C(O)CCC(=O)O (centres unmarked) [4-[2-dimethylamino-1-(1-hydroxycyclohexyl)-ethyl]phenyl 4-methoxybenzoate succinate] | quickly converted | 
CN(C)CC(c1ccc(OC(=O)c2ccccc2)cc1)C1(O)CCCCC1.Cl (centres unmarked) [4-[2-dimethylamino-1-(1-hydroxycyclohexyl)-ethyl]phenyl benzoate hydrochloride] | quickly converted | 
CN(C)CC(c1ccc(OC(=O)c2ccccc2)cc1)C1(O)CCCCC1 (centres unmarked) [Compound 2 of Example 1, 4-[2-dimethylamino-1-(1-hydroxycyclohexyl)-ethyl]phenyl Benzoate] |  | 96%
COc1ccc(C(=O)Oc2ccc(C(CN(C)C)C3(O)CCCCC3)cc2)cc1 (centres unmarked) [Compound 3 of Example 1, 4-[2-dimethylamino-1-(1-hydroxycyclohexyl)-ethyl]phenyl 4-methoxybenzoate] |  | 92%
CN(C)CC(c1ccc(OC(=O)c2ccc(F)cc2)cc1)C1(O)CCCCC1 (centres unmarked) [Compound 4 of Example 1, 4-[2-dimethylamino-1-(1-hydroxycyclohexyl)-ethyl]phenyl 4-fluorobenzoate] |  | 88%
